Assay results reported in ChEMBL document CHEMBL1142807, “Diprolyl nitriles as potent dipeptidyl peptidase IV inhibitors” (Bioorg Med Chem Lett, 2005).

Experiment: Inhibitory activity against Dipeptidyl peptidase IV
For `N#C[C@@H]1C[C@@H]2C[C@@H]2N1C(=O)[C@@H]1C[C@H](NS(=O)(=O)c2ccc(Cl)cc2)CN1`, the Ki was 39 nM. Compound `C[C@H]1CCN[C@@H]1C(=O)N1[C@H](C#N)C[C@@H]2C[C@@H]21` has a Ki of 126 nM. For `N#C[C@@H]1C[C@@H]2C[C@@H]2N1C(=O)[C@H]1CCCN1`, the Ki was > 10000 nM. Work on `CC(C)(C)OC(=O)N[C@@H]1CN[C@H](C(=O)N2[C@H](C#N)C[C@@H]3C[C@@H]32)C1` yielded a Ki of 140 nM. With `CC(C)(C)OC(=O)NC1CN[C@H](C(=O)N2[C@H](C#N)C[C@@H]3C[C@@H]32)C1` (single isomer, unassigned) the Ki was 492 nM. For `N#C[C@@H]1C[C@@H]2C[C@@H]2N1C(=O)[C@@H]1CCCN1`, the Ki was 305 nM. For `N#C[C@@H]1C[C@@H]2C[C@@H]2N1C(=O)[C@@H]1CCCCN1`, the Ki was > 10000 nM. `CC(C)(C)CC(=O)N[C@@H]1CN[C@H](C(=O)N2[C@H](C#N)C[C@@H]3C[C@@H]32)C1` showed a Ki of 133 nM. In the case of `N#C[C@@H]1C[C@@H]2C[C@@H]2N1C(=O)[C@@H]1CCN1`, the Ki is reported as > 10000 nM. `N#C[C@@H]1C[C@@H]2C[C@@H]2N1C(=O)[C@@H]1C[C@H](NC(=O)OCC2c3ccccc3-c3ccccc32)CN1` showed a Ki of 57 nM. Work on `N#C[C@@H]1C[C@@H]2C[C@@H]2N1C(=O)[C@H]1NC[C@@H]2C[C@@H]21` yielded a Ki of 52 nM. With `CC1(C)CCN[C@@H]1C(=O)N1[C@H](C#N)C[C@@H]2C[C@@H]21` the Ki was 37 nM. For `N#C[C@@H]1C[C@@H]2C[C@@H]2N1C(=O)[C@@H]1C[C@@H]2C[C@@H]2N1`, the Ki was > 10000 nM. Work on `CC[C@H]1CCN[C@@H]1C(=O)N1[C@H](C#N)C[C@@H]2C[C@@H]21` yielded a Ki of 290 nM.

Experiment: Half Life at 37 degree C and 10 uM in pH 7.0 buffer
Assay type: ADME
Work on `N#Cc1ccc(NC2CN[C@H](C(=O)N3[C@H](C#N)C[C@@H]4C[C@@H]43)C2)cc1Cl` (stereo not given in full) yielded a half-life at 10 µM of 900 min.
